# Experimental data: patent US12729377B2, “RNAi agents and compositions for inhibiting expression of angiopoietin-like 3 (ANGPTL3), and methods of use” (Arrowhead Pharmaceuticals, Inc., priority 2017, dated 2026)
# In the oligonucleotide strings, read from the 5' end, every base follows the letter of its sugar. An asterisk marks phosphorothioate; unmarked linkages are phosphodiester. Other units and linkages are bracketed, terminal groups are in braces. A string of capitals states the bases alone. {NAG37} = tridentate N-acetyl-galactosamine targeting ligand, structure (NAG37)s; [invAb] = inverted abasic unit; m = 2'-O-methyl; f = 2'-fluoro
# Key:
# ANGPTL3 gene [1] = experiment: Example 10: serum LDL in mice; format: in vivo, C57bl/6 mice; conditions: 0.5 mg/kg sc
# Description: To assess the in vivo activity of further ANGPTL3 RNAi agents that are designed to target position 304 on the ANGPTL3 gene, six- to eight-week-old female C57bl/6 mice were used. Pre-dose serum samples were taken at day −1 after a four hour fast. At day 1, each mouse was given a single subcutaneous administration of 200 μl containing 0.5 mg/kg (mpk) of an ANGPTL3 RNAi agent in D5W (dextrose in 5% water), or control (D5W) with no RNAi agent, according to the dosing groups recited in Table 47.
# Each of the RNAi agents included a modified sequence and an N-acetyl-galactosamine-containing targeting ligand conjugated to the 5′ terminal end of the sense strand. (See Tables 3, 4, and 5 for modified sequences and targeting ligand structures). As noted above, each of the ANGPTL3 RNAi agents dosed in this study included nucleotide sequences designed to target the ANGPTL3 gene at position 304. The injections were performed between the skin and muscle (i.e. subcutaneous injections) into the loose skin over the neck and shoulder area. Three (3) mice in each group were tested (n=3). Serum was collected on days 8, 15, 22, 29, and for some groups on day 36 (i.e., Groups 1, 2, and 9-13 only). Mice were fasted for four hours prior to each collection. ANGPTL3 protein levels in serum were measured by ELISA assay (R&D Systems), according to the manufacturer's recommendations. Triglycerides, total cholesterol, high-density lipoprotein (HDL), and low-density lipoprotein (LDL) in serum were measured on a Cobas® Integra 400 (Roche Diagnostics), according to the manufacturer's recommendations.
# The ANGPTL3 protein levels, triglyceride levels, total cholesterol levels, HDL levels, and LDL levels for each animal were normalized. For normalization, the level of ANGPTL3 protein, triglyceride, HDL, and total cholesterol, respectively, for each animal at a time point, was divided by the pre-treatment level of expression in that animal (in this case at day −1) to determine the ratio of expression “normalized to pre-treatment.” Expression at a specific time point was then normalized to the D5W control group by dividing the “normalized to pre-treatment” ratio for an individual animal by the mean “normalized to pretreatment” ratio of all mice in the D5W control group.
# ANGPTL3 gene [2] = experiment: Example 9: serum triglycerides in cynomolgus monkeys; format: in vivo, cynomolgus macaque (Macaca fascicularis); conditions: 2.0 mg/kg single SC injection day 1, cynos, n=3
# Description: Additional ANGPTL3 RNAi agents were evaluated in cynomolgus monkeys. On day 1, cynomolgus macaque (Macaca fascicularis) primates (also referred to herein as “cynos”) were administered a single subcutaneous injection of 0.3 mL/kg (approximately 2-3 mL volume, depending on animal mass) containing 2.0 mg/kg of an ANGPTL3 RNAi agent, which included either AD05488, AD05743, AD05775, or AD05841, each formulated in saline. […] ANGPTL3 RNAi agents AD05488, AD05743, and AD05775 included nucleotide sequences designed to target position 304 of the ANGPTL3 gene. ANGPTL3 RNAi agent AD05841 included nucleotide sequences designed to target position 1035 of the ANGPTL3 gene.
# Three (3) cynos in each group were tested (n=3). Blood samples were drawn and serum samples were analyzed on days −14 (predose), −7 (predose), 1 (pre-dose), 8, 15, 22, 29, and 35. Cynos were fasted overnight prior to each collection. ANGPTL3 protein levels in serum were measured by ELISA assay (R&D Systems), according to the manufacturer's recommendations. Triglycerides, total cholesterol, high-density lipoprotein (HDL), and low-density lipoprotein (LDL) in serum were measured on a Cobas® Integra 400 (Roche Diagnostics), according to the manufacturer's recommendations.
# The ANGPTL3 protein levels, triglyceride levels, total cholesterol levels, HDL levels, and LDL levels for each animal were normalized. For normalization, the level of ANGPTL3 protein, triglyceride, HDL, and total cholesterol, respectively, for each animal at a time point, was divided by the average pre-treatment level of expression in that animal (in this case at days −14, −7, and 1) to determine the ratio of expression “normalized to pre-treatment.”
substance,measurement,setting,value
"AD05488: RNAi agent duplex: antisense AM07235-AS, sense AM07234-SS (antisense mU*fA*mC*fUmGfAmUfCmAfAmAfUmAfUmGfUmUfGmAfG*mC; sense {NAG37}*[invAb]*mGmCmUmCmAmAmCmAfUfAfUmUmUmGmAmUmCmAmGmUmA*[invAb])",Avg LDL Normalized to Pre-Treatment and Control,ANGPTL3 gene [1]; Day 8,0.836
same,Avg LDL Normalized to Pre-Treatment and Control,ANGPTL3 gene [1]; Day 15,0.969
same,Avg LDL Normalized to Pre-Treatment and Control,ANGPTL3 gene [1]; Day 22,0.901
same,Avg LDL Normalized to Pre-Treatment and Control,ANGPTL3 gene [1]; Day 29,0.762
same,Avg LDL Normalized to Pre-Treatment and Control,ANGPTL3 gene [1]; Day 36,0.863
same,Average Triglycerides Normalized to Pre-Treatment,ANGPTL3 gene [2]; Day 8,0.413
same,Average Triglycerides Normalized to Pre-Treatment,ANGPTL3 gene [2]; Day 15,0.403
same,Average Triglycerides Normalized to Pre-Treatment,ANGPTL3 gene [2]; Day 22,0.288
same,Average Triglycerides Normalized to Pre-Treatment,ANGPTL3 gene [2]; Day 29,0.344
same,Average Triglycerides Normalized to Pre-Treatment,ANGPTL3 gene [2]; Day 35,0.350
